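Exposure lasted 48 hours, with cells grown in 96-well plates and compounds tested at five concentrations. GI50 is the concentration that inhibits growth by half. The concentration for full growth arrest is given as TGI.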
Assays:
Assay in all cases: NCI anticancer screen, dose series, 48 h
A549 NSCLC = tested on: A549 NSCLC
ACHN renal = tested on: ACHN renal
CAKI-1 renal = tested on: CAKI-1 renal
CCRF-CEM leukemia = tested on: CCRF-CEM leukemia
COLO 205 colon = tested on: COLO 205 colon
DU-145 prostate = tested on: DU-145 prostate
EKVX NSCLC = tested on: EKVX NSCLC
HCC-2998 colon = tested on: HCC-2998 colon
HCT-116 colon = tested on: HCT-116 colon
HCT-15 colon = tested on: HCT-15 colon
HL-60(TB) leukemia = tested on: HL-60(TB) leukemia
HOP-62 NSCLC = tested on: HOP-62 NSCLC
HOP-92 NSCLC = tested on: HOP-92 NSCLC
HS 578T breast = tested on: HS 578T breast
HT29 colon = tested on: HT29 colon
IGROV1 ovarian = tested on: IGROV1 ovarian
K-562 leukemia = tested on: K-562 leukemia
KM12 colon = tested on: KM12 colon
LOX IMVI melanoma = tested on: LOX IMVI melanoma
MALME-3M melanoma = tested on: MALME-3M melanoma
MCF7 breast = tested on: MCF7 breast
MDA-MB-231 breast = tested on: MDA-MB-231 breast
MDA-MB-435 = tested on: MDA-MB-435
MOLT-4 leukemia = tested on: MOLT-4 leukemia
NCI-H226 lung = tested on: NCI-H226 lung
NCI-H23 lung = tested on: NCI-H23 lung
NCI-H460 lung = tested on: NCI-H460 lung
NCI-H522 lung = tested on: NCI-H522 lung
NCI/ADR-RES ovarian = tested on: NCI/ADR-RES ovarian
OVCAR-3 ovarian = tested on: OVCAR-3 ovarian
OVCAR-5 ovarian = tested on: OVCAR-5 ovarian
OVCAR-8 ovarian = tested on: OVCAR-8 ovarian
RPMI-8226 leukemia = tested on: RPMI-8226 leukemia
SF-268 CNS = tested on: SF-268 CNS
SF-295 CNS = tested on: SF-295 CNS
SF-539 CNS = tested on: SF-539 CNS
SK-MEL-2 melanoma = tested on: SK-MEL-2 melanoma
SK-MEL-28 melanoma = tested on: SK-MEL-28 melanoma
SK-MEL-5 melanoma = tested on: SK-MEL-5 melanoma
SK-OV-3 ovarian = tested on: SK-OV-3 ovarian
SNB-75 CNS = tested on: SNB-75 CNS
SR leukemia = tested on: SR leukemia
SW-620 colon = tested on: SW-620 colon
TK-10 renal = tested on: TK-10 renal
UACC-257 melanoma = tested on: UACC-257 melanoma
UO-31 renal = tested on: UO-31 renal

CCCCCCCCCOc1c(OC)cc(C2CC(=O)Nc3c2c(C)nn3-c2nc3ccccc3[nH]2)cc1OC (configuration not stated) gave a GI50 (A549 NSCLC) of 1080 nM, a TGI (A549 NSCLC) of 2350 nM and a GI50 (ACHN renal) of 1130 nM. It also gave a TGI (ACHN renal) of 2790 nM, a GI50 (CAKI-1 renal) of 917 nM and a TGI (CAKI-1 renal) of 1810 nM. For the same compound, the GI50 (CCRF-CEM leukemia) was 1720 nM, the TGI (CCRF-CEM leukemia) was > 50000 nM and the GI50 (COLO 205 colon) was 1730 nM. For the same compound, the TGI (COLO 205 colon) was > 50000 nM, the GI50 (DU-145 prostate) was 1790 nM and the TGI (DU-145 prostate) was > 50000 nM. It also gave a GI50 (EKVX NSCLC) of 981 nM, a TGI (EKVX NSCLC) of 2320 nM and a GI50 (HCC-2998 colon) of 1620 nM. For the same compound, the TGI (HCC-2998 colon) was > 50000 nM, the GI50 (HCT-116 colon) was 1780 nM and the TGI (HCT-116 colon) was > 50000 nM. It also gave a GI50 (HCT-15 colon) of 1050 nM, a TGI (HCT-15 colon) of 2460 nM and a GI50 (HL-60(TB) leukemia) of 1580 nM. For the same compound, the TGI (HL-60(TB) leukemia) was 4450 nM, the GI50 (HOP-62 NSCLC) was 974 nM and the TGI (HOP-62 NSCLC) was 2110 nM. The GI50 (HOP-92 NSCLC) was 955 nM, the TGI (HOP-92 NSCLC) was 2460 nM and the GI50 (HS 578T breast) was 622 nM. The TGI (HS 578T breast) was 1970 nM, the GI50 (HT29 colon) was 1640 nM and the TGI (HT29 colon) was > 50000 nM. The GI50 (IGROV1 ovarian) was 890 nM, the TGI (IGROV1 ovarian) was 1770 nM and the GI50 (K-562 leukemia) was 1810 nM. The TGI (K-562 leukemia) was > 50000 nM, the GI50 (KM12 colon) was 1170 nM and the TGI (KM12 colon) was 3080 nM. It also gave a GI50 (LOX IMVI melanoma) of 913 nM, a TGI (LOX IMVI melanoma) of 1670 nM and a GI50 (MALME-3M melanoma) of 914 nM. The TGI (MALME-3M melanoma) was 1920 nM, the GI50 (MCF7 breast) was 1590 nM and the TGI (MCF7 breast) was > 50000 nM. The GI50 (MDA-MB-231 breast) was 975 nM, the TGI (MDA-MB-231 breast) was 1870 nM and the GI50 (MDA-MB-435) was 982 nM. For the same compound, the TGI (MDA-MB-435) was 1990 nM, the GI50 (MOLT-4 leukemia) was 1340 nM and the TGI (MOLT-4 leukemia) was 3250 nM. It also gave a GI50 (NCI-H226 lung) of 939 nM, a TGI (NCI-H226 lung) of 1840 nM and a GI50 (NCI-H23 lung) of 904 nM. The TGI (NCI-H23 lung) was 1830 nM, the GI50 (NCI-H460 lung) was 928 nM and the TGI (NCI-H460 lung) was 1800 nM. The GI50 (NCI-H522 lung) was 1010 nM, the TGI (NCI-H522 lung) was 2400 nM and the GI50 (NCI/ADR-RES ovarian) was 1310 nM. It also gave a TGI (NCI/ADR-RES ovarian) of 3740 nM, a GI50 (OVCAR-3 ovarian) of 1180 nM and a TGI (OVCAR-3 ovarian) of 2890 nM. The GI50 (OVCAR-5 ovarian) was 881 nM, the TGI (OVCAR-5 ovarian) was 1860 nM and the GI50 (OVCAR-8 ovarian) was 1710 nM. It also gave a TGI (OVCAR-8 ovarian) of 7280 nM, a GI50 (RPMI-8226 leukemia) of 1460 nM and a TGI (RPMI-8226 leukemia) of 4290 nM. For the same compound, the GI50 (SF-268 CNS) was 1040 nM, the TGI (SF-268 CNS) was 2570 nM and the GI50 (SF-295 CNS) was 816 nM. The TGI (SF-295 CNS) was 1740 nM, the GI50 (SF-539 CNS) was 851 nM and the TGI (SF-539 CNS) was 1650 nM. It also gave a GI50 (SK-MEL-2 melanoma) of 1410 nM, a TGI (SK-MEL-2 melanoma) of 4310 nM and a GI50 (SK-MEL-28 melanoma) of 897 nM. The TGI (SK-MEL-28 melanoma) was 1810 nM, the GI50 (SK-MEL-5 melanoma) was 871 nM and the TGI (SK-MEL-5 melanoma) was 1560 nM. It also gave a GI50 (SK-OV-3 ovarian) of 1060 nM, a TGI (SK-OV-3 ovarian) of 2090 nM and a GI50 (SNB-75 CNS) of 670 nM. The TGI (SNB-75 CNS) was 1550 nM, the GI50 (SR leukemia) was 1570 nM and the TGI (SR leukemia) was 6510 nM. For the same compound, the GI50 (SW-620 colon) was 1000 nM, the TGI (SW-620 colon) was 2170 nM and the GI50 (TK-10 renal) was 1270 nM. For the same compound, the TGI (TK-10 renal) was 3830 nM, the GI50 (UACC-257 melanoma) was 1470 nM and the TGI (UACC-257 melanoma) was > 50000 nM. The GI50 (UO-31 renal) was 679 nM and the TGI (UO-31 renal) was 1320 nM.

From PubChem BioAssay (NCI)
